Source: paper PMC7827406, “Structure–Activity Relationship (SAR) Study of Spautin-1 to Entail the Discovery of Novel NEK4 Inhibitors” (International Journal of Molecular Sciences, 2021)
Read-outs that look alike come from different tables or passages of the source.

Key:
Experiment in all cases: biochemical
Parameters in all cases: Eurofins KinaseProfiler full panel at Km ATP, residual kinase activity (%) relative to DMSO
ALK(h) = ALK(h) (Homo sapiens, UniProt Q9UM73)
Procedure, shortened: (§1)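 Radiometric kinase activity assays were run with ATP at Km and compounds at 10 µM, and remaining activity (%) was reported. A separate competitive binding screen measured DNA-tagged kinase displaced from immobilized active-site ligands by qPCR, giving percent kinase still bound at 10 µM compound in DMSO.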

JAK2(h) = JAK2(h) (Homo sapiens, UniProt O60674)
JAK2(h), sequence (O60674 whole entry): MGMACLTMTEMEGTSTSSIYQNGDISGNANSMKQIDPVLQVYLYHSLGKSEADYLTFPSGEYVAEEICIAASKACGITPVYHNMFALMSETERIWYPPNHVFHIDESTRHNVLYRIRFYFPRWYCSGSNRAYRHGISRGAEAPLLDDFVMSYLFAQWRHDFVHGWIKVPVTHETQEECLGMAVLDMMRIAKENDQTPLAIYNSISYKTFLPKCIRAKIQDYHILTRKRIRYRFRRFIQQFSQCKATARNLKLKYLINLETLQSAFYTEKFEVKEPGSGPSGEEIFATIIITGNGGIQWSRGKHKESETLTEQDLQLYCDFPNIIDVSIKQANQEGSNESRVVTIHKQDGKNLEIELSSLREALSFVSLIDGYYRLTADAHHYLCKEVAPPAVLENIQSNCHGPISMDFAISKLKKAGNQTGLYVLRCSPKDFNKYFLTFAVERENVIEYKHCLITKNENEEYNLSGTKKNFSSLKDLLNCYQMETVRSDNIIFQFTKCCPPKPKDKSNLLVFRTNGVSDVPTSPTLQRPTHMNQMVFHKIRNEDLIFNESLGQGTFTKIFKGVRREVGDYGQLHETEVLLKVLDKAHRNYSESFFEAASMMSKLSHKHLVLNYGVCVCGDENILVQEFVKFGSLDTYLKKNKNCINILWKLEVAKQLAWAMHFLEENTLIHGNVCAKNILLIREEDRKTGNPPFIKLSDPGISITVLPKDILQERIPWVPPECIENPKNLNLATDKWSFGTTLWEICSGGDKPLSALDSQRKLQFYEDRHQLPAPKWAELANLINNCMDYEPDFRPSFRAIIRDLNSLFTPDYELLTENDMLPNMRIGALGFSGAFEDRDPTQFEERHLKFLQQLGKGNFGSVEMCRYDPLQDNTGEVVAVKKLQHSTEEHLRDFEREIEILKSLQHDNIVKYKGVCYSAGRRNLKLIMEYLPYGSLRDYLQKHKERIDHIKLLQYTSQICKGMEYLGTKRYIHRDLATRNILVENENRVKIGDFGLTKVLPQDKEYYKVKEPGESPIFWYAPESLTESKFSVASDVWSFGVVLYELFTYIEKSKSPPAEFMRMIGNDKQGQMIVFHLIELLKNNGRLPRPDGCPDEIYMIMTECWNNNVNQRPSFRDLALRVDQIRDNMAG
Procedure, shortened: as §1

MAPKAP-K2(h) = target: T1, MAPKAP-K2(h) (Homo sapiens, UniProt P49137)
T1 construct: gene MAPKAPK2
T1 sequence (P49137 whole entry): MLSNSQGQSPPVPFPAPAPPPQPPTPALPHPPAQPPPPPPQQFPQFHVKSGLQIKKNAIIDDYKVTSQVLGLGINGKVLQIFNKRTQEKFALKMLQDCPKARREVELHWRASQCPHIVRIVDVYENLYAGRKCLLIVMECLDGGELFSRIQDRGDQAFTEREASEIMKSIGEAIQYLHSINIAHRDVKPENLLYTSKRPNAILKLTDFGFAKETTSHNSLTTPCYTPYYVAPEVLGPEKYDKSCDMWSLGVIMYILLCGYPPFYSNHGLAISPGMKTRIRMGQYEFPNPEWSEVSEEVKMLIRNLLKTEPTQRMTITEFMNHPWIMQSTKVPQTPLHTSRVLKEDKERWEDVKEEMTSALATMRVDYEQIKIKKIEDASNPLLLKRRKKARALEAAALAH
Procedure, shortened: as §1

PKCε(h) = target: T2, PKCε(h) (Homo sapiens, UniProt Q02156)
T2 construct: gene PRKCE
T2 sequence (Q02156 1-737): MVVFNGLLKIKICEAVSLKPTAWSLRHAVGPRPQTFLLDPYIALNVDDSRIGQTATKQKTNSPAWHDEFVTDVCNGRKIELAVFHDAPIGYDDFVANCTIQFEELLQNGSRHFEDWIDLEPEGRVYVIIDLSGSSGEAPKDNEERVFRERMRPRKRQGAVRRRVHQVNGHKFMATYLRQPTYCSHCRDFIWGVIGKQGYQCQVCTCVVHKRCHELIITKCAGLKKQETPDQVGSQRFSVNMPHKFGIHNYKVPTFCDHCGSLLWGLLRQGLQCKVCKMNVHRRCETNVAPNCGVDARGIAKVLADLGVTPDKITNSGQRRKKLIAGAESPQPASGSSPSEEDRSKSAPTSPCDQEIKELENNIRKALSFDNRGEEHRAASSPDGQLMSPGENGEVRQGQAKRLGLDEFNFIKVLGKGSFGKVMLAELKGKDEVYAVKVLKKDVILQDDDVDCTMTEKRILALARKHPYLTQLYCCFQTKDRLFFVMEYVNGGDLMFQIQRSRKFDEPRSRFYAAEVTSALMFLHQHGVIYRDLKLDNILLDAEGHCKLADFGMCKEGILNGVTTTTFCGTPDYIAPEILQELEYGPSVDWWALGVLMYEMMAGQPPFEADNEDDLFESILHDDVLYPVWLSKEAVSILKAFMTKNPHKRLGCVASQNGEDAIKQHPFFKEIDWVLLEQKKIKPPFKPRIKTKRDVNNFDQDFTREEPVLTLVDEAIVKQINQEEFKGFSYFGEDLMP
Procedure, shortened: as §1

Plk3(h) = Plk3(h) (Homo sapiens, UniProt Q9H4B4)
Plk3(h), sequence (Q9H4B4 whole entry): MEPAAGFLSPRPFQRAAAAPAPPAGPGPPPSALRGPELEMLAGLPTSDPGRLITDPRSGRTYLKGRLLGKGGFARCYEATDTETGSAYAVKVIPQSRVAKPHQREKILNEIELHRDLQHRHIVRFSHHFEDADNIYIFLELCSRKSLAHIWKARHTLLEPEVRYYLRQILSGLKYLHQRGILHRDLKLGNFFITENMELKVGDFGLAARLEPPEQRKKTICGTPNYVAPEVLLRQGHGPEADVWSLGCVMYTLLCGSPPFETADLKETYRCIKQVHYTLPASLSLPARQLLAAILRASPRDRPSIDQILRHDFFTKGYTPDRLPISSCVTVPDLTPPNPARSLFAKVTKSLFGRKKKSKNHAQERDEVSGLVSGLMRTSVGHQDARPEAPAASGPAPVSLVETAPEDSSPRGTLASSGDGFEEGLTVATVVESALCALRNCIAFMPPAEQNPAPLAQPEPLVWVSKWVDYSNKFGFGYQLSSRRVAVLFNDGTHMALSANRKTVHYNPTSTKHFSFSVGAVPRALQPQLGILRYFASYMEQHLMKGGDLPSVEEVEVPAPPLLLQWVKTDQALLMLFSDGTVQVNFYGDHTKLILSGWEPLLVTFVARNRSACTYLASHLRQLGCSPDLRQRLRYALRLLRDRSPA
Procedure, shortened: as §1

ULK1(h) = target: T3, ULK1(h) (Homo sapiens, UniProt O75385)
T3 sequence (O75385 1-1050): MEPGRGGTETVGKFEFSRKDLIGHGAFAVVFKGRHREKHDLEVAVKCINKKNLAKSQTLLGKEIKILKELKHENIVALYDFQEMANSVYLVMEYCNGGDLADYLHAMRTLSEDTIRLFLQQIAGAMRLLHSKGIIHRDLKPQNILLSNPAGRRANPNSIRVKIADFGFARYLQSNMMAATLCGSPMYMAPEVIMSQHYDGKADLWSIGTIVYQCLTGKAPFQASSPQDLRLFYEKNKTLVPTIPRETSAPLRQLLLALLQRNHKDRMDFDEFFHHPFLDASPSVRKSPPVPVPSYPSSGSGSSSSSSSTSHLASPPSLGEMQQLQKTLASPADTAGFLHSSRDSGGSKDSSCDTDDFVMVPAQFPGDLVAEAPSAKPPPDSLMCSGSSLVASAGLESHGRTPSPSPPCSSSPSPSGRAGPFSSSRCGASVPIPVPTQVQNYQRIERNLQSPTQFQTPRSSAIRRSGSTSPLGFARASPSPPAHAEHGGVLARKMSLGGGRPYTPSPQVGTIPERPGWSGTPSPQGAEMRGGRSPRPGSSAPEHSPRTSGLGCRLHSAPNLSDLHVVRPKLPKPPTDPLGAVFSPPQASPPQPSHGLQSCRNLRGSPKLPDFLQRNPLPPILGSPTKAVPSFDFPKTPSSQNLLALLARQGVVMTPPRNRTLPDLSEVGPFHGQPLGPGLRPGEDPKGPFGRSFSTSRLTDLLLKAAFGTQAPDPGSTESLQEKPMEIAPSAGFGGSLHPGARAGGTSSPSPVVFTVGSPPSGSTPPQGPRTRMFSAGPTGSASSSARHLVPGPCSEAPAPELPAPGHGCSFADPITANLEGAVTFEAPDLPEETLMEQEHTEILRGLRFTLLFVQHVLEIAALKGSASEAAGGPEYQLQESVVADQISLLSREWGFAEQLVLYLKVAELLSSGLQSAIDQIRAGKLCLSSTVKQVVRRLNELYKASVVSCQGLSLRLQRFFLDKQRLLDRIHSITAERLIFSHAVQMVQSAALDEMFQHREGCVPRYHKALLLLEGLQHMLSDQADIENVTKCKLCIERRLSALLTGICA
Procedure, shortened: as §1

[1] = read-out: Residual activity (%) 5ay
[2] = read-out: Residual activity (%) Spautin-1 5aa
[3] = read-out: Residual activity (%) 5at
[4] = read-out: Residual activity (%) 5as

ALK(h), sequence (Q9UM73 whole entry): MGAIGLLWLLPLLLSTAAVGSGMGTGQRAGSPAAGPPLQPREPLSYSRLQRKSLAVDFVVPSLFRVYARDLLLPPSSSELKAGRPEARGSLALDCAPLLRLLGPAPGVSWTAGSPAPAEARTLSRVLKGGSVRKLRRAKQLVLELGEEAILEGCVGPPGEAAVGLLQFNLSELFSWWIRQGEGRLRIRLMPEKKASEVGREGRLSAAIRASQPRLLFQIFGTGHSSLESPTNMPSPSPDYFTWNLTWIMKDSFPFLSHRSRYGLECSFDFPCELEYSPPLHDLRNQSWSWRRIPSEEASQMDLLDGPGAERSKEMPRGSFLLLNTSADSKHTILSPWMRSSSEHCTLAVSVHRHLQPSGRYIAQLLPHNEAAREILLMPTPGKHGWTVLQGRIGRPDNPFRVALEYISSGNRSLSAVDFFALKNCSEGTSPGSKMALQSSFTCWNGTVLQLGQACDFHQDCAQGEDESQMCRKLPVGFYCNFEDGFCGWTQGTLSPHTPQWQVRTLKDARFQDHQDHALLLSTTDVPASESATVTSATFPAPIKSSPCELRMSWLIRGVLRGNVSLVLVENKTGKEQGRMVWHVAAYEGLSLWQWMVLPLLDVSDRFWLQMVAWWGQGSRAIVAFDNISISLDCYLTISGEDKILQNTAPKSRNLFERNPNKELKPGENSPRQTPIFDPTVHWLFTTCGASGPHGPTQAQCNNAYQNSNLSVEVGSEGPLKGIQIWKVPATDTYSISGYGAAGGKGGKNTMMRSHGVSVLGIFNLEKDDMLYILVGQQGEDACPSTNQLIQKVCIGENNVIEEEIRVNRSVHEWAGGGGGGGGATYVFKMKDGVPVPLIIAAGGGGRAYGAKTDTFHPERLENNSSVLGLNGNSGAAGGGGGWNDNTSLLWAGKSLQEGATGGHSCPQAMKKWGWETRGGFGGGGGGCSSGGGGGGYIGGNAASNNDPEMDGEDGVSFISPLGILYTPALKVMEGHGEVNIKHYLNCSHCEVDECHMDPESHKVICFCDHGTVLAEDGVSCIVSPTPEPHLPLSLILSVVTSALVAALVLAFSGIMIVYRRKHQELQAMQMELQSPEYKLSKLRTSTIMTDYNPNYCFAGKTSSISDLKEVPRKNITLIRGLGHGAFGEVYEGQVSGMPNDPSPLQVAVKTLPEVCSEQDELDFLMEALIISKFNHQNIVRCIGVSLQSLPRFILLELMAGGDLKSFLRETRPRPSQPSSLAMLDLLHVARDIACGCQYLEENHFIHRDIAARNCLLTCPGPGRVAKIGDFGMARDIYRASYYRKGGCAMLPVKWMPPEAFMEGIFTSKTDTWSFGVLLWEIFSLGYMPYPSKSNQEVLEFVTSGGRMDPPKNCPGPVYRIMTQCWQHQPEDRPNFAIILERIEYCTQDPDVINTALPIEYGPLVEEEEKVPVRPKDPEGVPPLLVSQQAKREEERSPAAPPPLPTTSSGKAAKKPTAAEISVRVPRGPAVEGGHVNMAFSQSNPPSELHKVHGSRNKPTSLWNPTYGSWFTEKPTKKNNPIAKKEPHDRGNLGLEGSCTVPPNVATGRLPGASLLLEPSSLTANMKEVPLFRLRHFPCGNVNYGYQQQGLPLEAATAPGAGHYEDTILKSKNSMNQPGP

COc1ccc2ncnc(Nc3cccc(F)c3)c2c1 [5ay, N-(3-Fluorophenyl)-6-Methoxy-4-Quinazolinamine]
remaining activity at 10 µM (ALK(h); [1]): 72%
remaining activity at 10 µM (JAK2(h); [1]): 108%
remaining activity at 10 µM (MAPKAP-K2(h); [1]): 80%
remaining activity at 10 µM (PKCε(h); [1]): 93%
remaining activity at 10 µM (Plk3(h); [1]): 92%
remaining activity at 10 µM (ULK1(h); [1]): 93%

Fc1ccc(CNc2ncnc3ccc(F)cc23)cc1 [5aa, 6-Fluoro-N-(4-fluorobenzyl)-4-Quinazolinamine]
remaining activity at 10 µM (ALK(h); [2]): 82%
remaining activity at 10 µM (JAK2(h); [2]): 91%
remaining activity at 10 µM (MAPKAP-K2(h); [2]): 79%
remaining activity at 10 µM (PKCε(h); [2]): 95%
remaining activity at 10 µM (Plk3(h); [2]): 88%
remaining activity at 10 µM (ULK1(h); [2]): 99%

Fc1ccc2ncnc(NCCc3ccc(Cl)cc3)c2c1 [5at, N-[2-(4-Chlorophenyl)Ethyl]-6-Fluoro-4-Quinazolinamine]
remaining activity at 10 µM (ALK(h); [3]): 86%
remaining activity at 10 µM (JAK2(h); [3]): 86%
remaining activity at 10 µM (MAPKAP-K2(h); [3]): 97%
remaining activity at 10 µM (PKCε(h); [3]): 86%
remaining activity at 10 µM (Plk3(h); [3]): 99%
remaining activity at 10 µM (ULK1(h); [3]): 84%

Fc1ccc(CCNc2ncnc3ccc(F)cc23)cc1 [5as, 6-Fluoro-N-[2-(4-Fluorophenyl)Ethyl]-4-Quinazolinamine]
remaining activity at 10 µM (ALK(h); [4]): 59%
remaining activity at 10 µM (JAK2(h); [4]): 93%
remaining activity at 10 µM (MAPKAP-K2(h); [4]): 85%
remaining activity at 10 µM (PKCε(h); [4]): 93%
remaining activity at 10 µM (Plk3(h); [4]): 94%
remaining activity at 10 µM (ULK1(h); [4]): 91%
